Reference: patent publication US5753695A, “Flavilium compounds and method of using” (Biogal Gyogyszergyar RT, priority 1992, dated 1998)

Columns and labels:
HIV-1 IIIB = assay: HIV reverse transcriptase activity / HIV replication in infected MT-4 and H9 human lymphocyte cell-lines; type: cell-based, HIV-1 strain IIIB
Procedure: The HIV reverse transcriptase inhibiting activity of compounds of formula (I) of the invention was measured by the method of Hoffman, A. D. et al. described in Virology, Vol. 147, pp. 326-335, 1985.
The measurement results are shown for the model compound 5,7,4'-trihydroxy-4,3',5'-trimethyl-flavilium chloride (hereinafter referred to as "BIOGAL 6") and prepared as described in Example 1 below.
The active agents were tested on MT-4 and H9 human lymphocyte cell-lines infected with the strain HIV-1 IIIB. The cells were infected with 20 TCID50 of the HIV-1 virus.
[…] The active agent was first added to the culture 4 hours before the infection, and then 24, and 48 hours after infection. HIV infected, untreated MT-4 and H9 cells were used, as well as uninfected, untreated cells as a control. The AZT-control was zidovudine (ZDU) sold by Burroughs Wellcome Company under the name Retrovir.
Reverse transcriptase inhibiting activity was determined on 500 μl aliquots from supernatant of the culture and their virus concentration was measured. The results are given in cpm/cm^3 indicating ^3 H-TTP.

[1] = test system: WISTAR Charles River/SPF laboratory rat strains; assay: Acute toxicity, WISTAR Charles River/SPF laboratory rats; type: in vivo; conditions: oral doses even as high as 2,000 μg/kg
Procedure: (§1) Acute toxicity examinations on CFP/SPF laboratory mice strains and WISTAR Charles River/SPF laboratory rat strains, orally and intravenously have shown that BIOGAL-6 is nontoxic at oral doses even as high as […].

CFP/SPF laboratory mice = assay: Acute toxicity, CFP/SPF laboratory mice; type: in vivo; conditions: oral doses even as high as 2,000 μg/kg
Procedure: as §1

SMILES	RT activity (HIV-1 IIIB; Table 1, 5 μg/cm^3, 7 day) [cpm/cm^3]	RT activity (HIV-1 IIIB; Table 1, 5 μg/cm^3, 10 day) [cpm/cm^3]	RT activity (HIV-1 IIIB; Table 1, 5 μg/cm^3, 18 day) [cpm/cm^3]	RT activity (HIV-1 IIIB; Table 1, 20 μg/cm^3, 7 day) [cpm/cm^3]	RT activity (HIV-1 IIIB; Table 1, 20 μg/cm^3, 10 day) [cpm/cm^3]	RT activity (HIV-1 IIIB; Table 1, 20 μg/cm^3, 18 day) [cpm/cm^3]	RT activity (HIV-1 IIIB; Table 1, 100 μg/cm^3, 7 day) [cpm/cm^3]	RT activity (HIV-1 IIIB; Table 1, 100 μg/cm^3, 10 day) [cpm/cm^3]	RT activity (HIV-1 IIIB; Table 1, 100 μg/cm^3, 18 day) [cpm/cm^3]	RT activity (HIV-1 IIIB; Table 2, 0.1 μg/cm^3, 7 day) [cpm/cm^3]	RT activity (HIV-1 IIIB; Table 2, 0.1 μg/cm^3, 10 day) [cpm/cm^3]	RT activity (HIV-1 IIIB; Table 2, 0.1 μg/cm^3, 18 day) [cpm/cm^3]	RT activity (HIV-1 IIIB; Table 2, 0.5 μg/cm^3, 7 day) [cpm/cm^3]	RT activity (HIV-1 IIIB; Table 2, 0.5 μg/cm^3, 10 day) [cpm/cm^3]	RT activity (HIV-1 IIIB; Table 2, 0.5 μg/cm^3, 18 day) [cpm/cm^3]	RT activity (HIV-1 IIIB; Table 2, 1.0 μg/cm^3, 7 day) [cpm/cm^3]	RT activity (HIV-1 IIIB; Table 2, 1.0 μg/cm^3, 10 day) [cpm/cm^3]	RT activity (HIV-1 IIIB; Table 2, 1.0 μg/cm^3, 18 day) [cpm/cm^3]	RT activity (HIV-1 IIIB; Table 2, 2.5 μg/cm^3, 7 day) [cpm/cm^3]	RT activity (HIV-1 IIIB; Table 2, 2.5 μg/cm^3, 10 day) [cpm/cm^3]	further results
Cc1cn([C@H]2C[C@H](N=[N+]=[N-])[C@@H](CO)O2)c(=O)[nH]c1=O [AZT, azidothymidine, reference compound]	2.195	2.127	38.797	2.386	2.224	1.921	2.220	2.181	1.838	7.392	125.627	62.817	6.148	75.051	84.047	3.989	15.115	75.539	3.231	9.083	RT activity (HIV-1 IIIB; Table 2, 2.5 μg/cm^3, 18 day): 116.001 cpm/cm^3; RT activity (HIV-1 IIIB; Table 2, 5.0 μg/cm^3, 7 day): 1.724 cpm/cm^3; RT activity (HIV-1 IIIB; Table 2, 5.0 μg/cm^3, 10 day): 3.571 cpm/cm^3; RT activity (HIV-1 IIIB; Table 2, 5.0 μg/cm^3, 18 day): 51.735 cpm/cm^3
Cc1cc(-c2cc(C)c3c(O)cc(O)cc3[o+]2)cc(C)c1O [BIOGAL 6, 5,7,4'-trihydroxy-4,3',5'-trimethyl-flavilium chloride]	1.795	1.228	1.198	1.748	1.626	1.300	1.666	1.300	1.359	111.035	99.813	45.535	108.846	98.150	43.804	96.638	75.917	38.595	6.231	8.938	acute toxicity [1]: nontoxic; acute toxicity (CFP/SPF laboratory mice): nontoxic; effect on HIV (in words) (HIV-1 IIIB; 1.0 μg/cm^3 and below): completely ineffective; effect on HIV replication (in words) (HIV-1 IIIB; 5 μg/cm^3): completely blocked the HIV replication; duration of effect compared to AZT (in words), FIG. 1 (HIV-1 IIIB; 5 μg/cm^3, FIG. 1): long lasting when compared to AZT; effect on HIV production (in words), FIG. 1 (HIV-1 IIIB; 5 μg/cm^3, FIG. 1): completely blocked HIV production; duration of effect on HIV (in words) (HIV-1 IIIB; 2.5 and 5 μg/cm^3): long-lasting; RT activity (HIV-1 IIIB; Table 2, 2.5 μg/cm^3, 18 day): 6.803 cpm/cm^3; RT activity (HIV-1 IIIB; Table 2, 5.0 μg/cm^3, 7 day): 1.478 cpm/cm^3; RT activity (HIV-1 IIIB; Table 2, 5.0 μg/cm^3, 10 day): 1.019 cpm/cm^3; RT activity (HIV-1 IIIB; Table 2, 5.0 μg/cm^3, 18 day): 1.226 cpm/cm^3
